How the values were obtained:
Type in all cases: cell-based
MOLM-13 cells [1] = assay: Antiproliferative effect alone and in combination with azacitidine against MOLM-13 cells
Experimental: (§1) MOLM-13 cells in the logarithmic growth phase were diluted in a medium RPMI+[…], and NCI-H929 cells were diluted in a medium RPMI+10% FBS. The cells were plated at 4,000 cells/well in 96-well whole black plates (WHB) with 50 μL/well. After plating, the plates were incubated in an incubator at 5% CO2 and 37° C. for 24 h before the compounds were added. The compounds were prepared into a 10 mM stock solution in DMSO and diluted in a culture medium to the desired concentrations (a final DMSO concentration of 0.2%). 50 μL of the compound dilutions at final concentrations of 10,000, 3,333.33, 1,111.11, 370.37, 123.46, 41.15, 13.72, 4.57, 1.52, and 0 nM were added to the 96-well plates containing the cells, that is, each compound was serially diluted to 10 concentrations in duplicate. The plates were incubated at 5% CO2 and 37° C. for 72 h. When pharmaceutical partners were used, the concentrations of azacitidine and dexamethasone were kept at 200 nM and 500 nM respectively, and the compounds were serially three-fold diluted from 10,000 nM. After the incubation was complete, the plates were equilibrated at room temperature for 30 min. CellTiter-Glo® Reagent (Promega G7573) was added at 100 μL/well. The plates were shaken for 12 min on a microplate shaker. The luminescence value was measured at room temperature by the GloMax navigator (Promega GM2010). The IC50 values were calculated using the GraphPad Prism 7 software with the 0 nM control group as 0% inhibition.

NCI-H929 cells [2] = assay: Antiproliferative effect alone and in combination with dexamethasone against NCI-H929 cells; conditions: 72 h, read-out: IC50
Experimental: as §1

MV-4-11 cells = assay: Antiproliferative activity against MV-4-11 cells (CellTiter-Glo, 72 h); conditions: Homo sapiens, MV4-11; MV-4-11 cells, 72 h; read-out: Antiproliferative activity IC50
Summary of the method: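 MV-4-11 cells in RPMI + 10% FBS plated at 5,000 cells/well and pre-incubated 24 h at 37 °C, 5% CO2. Compounds were then added (final DMSO 0.2%) and cells incubated 72 h. Viability was read by CellTiter-Glo luminescence after 30 min equilibration at room temperature.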

NCI-H929 cells [3] = assay: Antiproliferative activity against various tumor cells: NCI-H929; conditions: Homo sapiens; NCI-H929 cells, 72 h; read-out: Antiproliferative activity IC50 NCI-H929
Experimental: (§2) U937, NCI-H929, AML-2, and MOLM-13 cells in the logarithmic growth phase were diluted in media RPMI+10% FBS, RPMI+10% FBS, MEMα+20% FBS, RPMI+20% FBS, respectively, and plated at 4,000 cells/well in 96-well whole black plates (WHB) with 50 μL/well. After plating, the plates were incubated in an incubator at 5% CO2 and 37° C. for 24 h before the compounds were added. The compounds were prepared into a 10 mM stock solution in DMSO and diluted in a culture medium to the desired concentrations (a final DMSO concentration of 0.2%). […] The plates were incubated at 5% CO2 and 37° C. for 72 h. After the incubation was complete, the plates were equilibrated at room temperature for 30 min. CellTiter-Glo® Reagent (Promega G7573) was added at 100 μL/well. The plates were shaken for 12 min on a microplate shaker. The luminescence value was measured at room temperature by the GloMax navigator (Promega GM2010).

U937 cells = assay: Antiproliferative activity against various tumor cells: U937; conditions: Homo sapiens, U-937; U937 cells, 72 h; read-out: Antiproliferative activity IC50 U937
Experimental: as §2

MOLM-13 cells [4] = assay: Antiproliferative activity against various tumor cells: MOLM-13; conditions: Homo sapiens; MOLM-13 cells, 72 h; read-out: Antiproliferative activity IC50 MOLM-13
Experimental: as §2

AML-2 cells = assay: Antiproliferative activity against various tumor cells: AML-2; conditions: AML-2 cells, 72 h; read-out: Antiproliferative activity IC50 AML-2
Experimental: as §2

GSPT1 protein = biological target: T1, GSPT1 protein (Homo sapiens, UniProt P15170); assay: Degradation of GSPT1 protein in NB-4 cells (Western blot); conditions: NB-4 cells, compound 1 μM, 6 h; read-out: GSPT1 degradation
T1 construct: The whole cell lysate was prepared using a RIPA lysis buffer; endogenous in cells; host or cells: NB-4 cells
Summary of the method: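 NB-4 cells treated with compounds at 1 μM for 6 h at 37 °C, 5% CO2, with DMSO control. RIPA whole-cell lysates, BCA-normalized, were run on 4-20% SDS-PAGE and immunoblotted for GSPT1 protein.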

CK1α = biological target: T2, CK1α (Homo sapiens, UniProt P48729); assay: Degradation of CK1α protein in HL-60 cells (Western blot); conditions: 4 h
T2 construct: The whole cell lysate was prepared using a RIPA lysis buffer; endogenous in cells; host or cells: HL-60 cells
Experimental: (§3) […] of DMSO and the compounds were added, and the mixture was incubated in an incubator at 5% CO2 and 37° C. for 4 h. The cells were centrifuged, and the culture medium was discarded. PBS was added for washing and then discarded. The whole cell lysate was prepared using a RIPA lysis buffer containing a protease inhibitor cocktail and a phosphatase inhibitor, and incubated on ice for 30 min. The mixture was centrifuged, and the cell debris was discarded. The whole cell lysate supernatant was collected and transferred to a fresh EP tube. Samples were prepared using a loading buffer after a BCA protein assay. The samples were incubated in a metal bath at 100° C. for 10 min. The samples were electrophoretically separated from proteins on a 4-20% precast gel (SDS-PAGE gel), transferred to a PVDF membrane, blocked with 5% NFDM/TBST for 1 h at room temperature, co-incubated overnight at 4° C. with the primary antibody, and co-incubated for 2 h at room temperature with the secondary antibody on the next day. The signals were detected on the […]™ imaging system.

c-Myc = biological target: T3, c-Myc (Homo sapiens, UniProt P01106); assay: Degradation of c-MYC protein in HL-60 cells (Western blot); conditions: 4 h
T3 construct: The whole cell lysate was prepared using a RIPA lysis buffer; endogenous in cells; host or cells: HL-60 cells
Experimental: as §3

[5] = in combination with 500 nM dexamethasone

T2 sequence (P48729 whole entry): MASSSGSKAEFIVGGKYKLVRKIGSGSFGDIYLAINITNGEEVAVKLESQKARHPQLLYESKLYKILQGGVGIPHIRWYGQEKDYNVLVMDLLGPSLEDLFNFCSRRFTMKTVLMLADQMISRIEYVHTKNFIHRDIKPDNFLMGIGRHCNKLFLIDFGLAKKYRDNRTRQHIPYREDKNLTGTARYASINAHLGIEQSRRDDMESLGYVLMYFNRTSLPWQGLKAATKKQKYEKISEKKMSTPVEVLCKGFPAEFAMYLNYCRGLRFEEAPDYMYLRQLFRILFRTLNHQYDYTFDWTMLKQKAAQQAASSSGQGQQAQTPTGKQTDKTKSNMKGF
T3 sequence (P01106 whole entry): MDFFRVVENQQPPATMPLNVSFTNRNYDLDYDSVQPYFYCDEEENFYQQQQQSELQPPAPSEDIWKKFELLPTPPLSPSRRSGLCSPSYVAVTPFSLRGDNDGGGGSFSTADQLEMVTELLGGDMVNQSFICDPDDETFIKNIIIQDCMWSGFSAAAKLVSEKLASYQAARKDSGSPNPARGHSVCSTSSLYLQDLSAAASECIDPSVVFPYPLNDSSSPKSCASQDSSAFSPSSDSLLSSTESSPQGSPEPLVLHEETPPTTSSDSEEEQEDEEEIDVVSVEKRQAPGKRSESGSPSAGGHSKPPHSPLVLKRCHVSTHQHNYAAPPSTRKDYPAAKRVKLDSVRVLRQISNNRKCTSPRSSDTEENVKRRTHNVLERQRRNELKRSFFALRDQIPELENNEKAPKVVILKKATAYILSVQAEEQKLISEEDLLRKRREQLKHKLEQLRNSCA
T1 sequence (P15170 whole entry): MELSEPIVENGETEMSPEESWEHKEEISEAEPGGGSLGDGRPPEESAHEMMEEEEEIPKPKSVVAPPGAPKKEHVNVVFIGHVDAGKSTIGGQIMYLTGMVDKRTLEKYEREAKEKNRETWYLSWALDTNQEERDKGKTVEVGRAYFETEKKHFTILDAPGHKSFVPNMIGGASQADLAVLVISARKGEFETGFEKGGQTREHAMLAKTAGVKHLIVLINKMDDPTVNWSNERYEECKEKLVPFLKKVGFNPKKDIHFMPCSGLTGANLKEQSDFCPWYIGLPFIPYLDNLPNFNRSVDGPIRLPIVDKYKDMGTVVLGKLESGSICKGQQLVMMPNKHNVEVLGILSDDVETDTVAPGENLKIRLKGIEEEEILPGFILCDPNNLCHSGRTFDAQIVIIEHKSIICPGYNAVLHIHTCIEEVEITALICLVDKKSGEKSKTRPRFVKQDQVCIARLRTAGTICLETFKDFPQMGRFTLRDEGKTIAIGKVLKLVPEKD

| Compound | IC50 (MV-4-11 cells) | IC50 (NCI-H929 cells [3]) | IC50 (U937 cells) | IC50 (MOLM-13 cells [4]) | IC50 (AML-2 cells) | inhibition at 1 µM (GSPT1 protein) | further results |
| --- | --- | --- | --- | --- | --- | --- | --- |
| Nc1ncn([C@@H]2O[C@H](CO)[C@@H](O)[C@H]2O)c(=O)n1 [Azacitidine, reference compound] |  |  |  |  |  |  | antiproliferative activity against MOLM-13 cells at fixed concentration (MOLM-13 cells [1]; 200 nM): no significant antiproliferative activity; IC50 (MOLM-13 cells [1]; Homo sapiens, MOLM-13 cells, 72 h, compound alone): 751 nM |
| C[C@@H]1C[C@H]2[C@@H]3CCC4=CC(=O)C=C[C@]4(C)[C@@]3(F)[C@@H](O)C[C@]2(C)[C@@]1(O)C(=O)CO [Dexamethasone] |  |  |  |  |  |  | IC50 (NCI-H929 cells [2]; Homo sapiens, compound alone): > 10000 nM |
| CC(C)(C)c1ccc(C(=O)NCc2ccc3c(c2F)CN(C2CCC(=O)NC2=O)C3=O)cc1 (stereo not drawn) [FDAB-94] | < 1 nM | 1 to 10 nM | < 1 nM | < 1 nM | < 1 nM | > 80% |  |
| O=C1CCC(N2Cc3c(ccc(CNC(=O)c4ccc(C(=O)c5ccccc5)cc4)c3F)C2=O)C(=O)N1 (stereo not drawn) [FDAB-100] | < 1 nM | < 1 nM | < 1 nM | < 1 nM | 1 to 10 nM | > 80% |  |
| O=C(C#Cc1ccccc1)NCc1ccc2c(c1F)CN(C1CCC(=O)NC1=O)C2=O (stereo not drawn) [FDAB-144] | < 1 nM | < 1 nM | 1 to 10 nM | < 1 nM | 1 to 10 nM | > 80% |  |
| CCCCCCCCCCCCSC(=S)SC(C)(C#N)CCC(=O)NCc1ccc2c(c1F)CN(C1CCC(=O)NC1=O)C2=O (stereo not drawn) [FDAB-164] | < 1 nM |  |  |  |  | > 80% | CK1α degradation (CK1α; 10 nM): D (D denotes a percentage of degradation less than 25%); CK1α degradation (CK1α; 100 nM): C (C denotes a percentage of degradation less than 500% but not less than 250%); CK1α degradation (CK1α; 1000 nM): C (C denotes a percentage of degradation less than 500% but not less than 250%); c-Myc degradation (c-Myc; 10 nM): D (D denotes a percentage of degradation less than 25%); c-Myc degradation (c-Myc; 100 nM): C (C denotes a percentage of degradation less than 500% but not less than 250%); c-Myc degradation (c-Myc; 1000 nM): C (C denotes a percentage of degradation less than 500% but not less than 250%) |
| Nc1cccc2c1CN(C1CCC(=O)NC1=O)C2=O (stereo not drawn) [Lenalidomide] |  |  |  |  |  |  | IC50 (NCI-H929 cells [2]; [5]): 774 nM; IC50 (NCI-H929 cells [2]; Homo sapiens, compound alone): 2180 nM |
| Nc1cccc2c1C(=O)N(C1CCC(=O)NC1=O)C2=O (stereo not drawn) [Pomalidomide] |  |  |  |  |  |  | IC50 (NCI-H929 cells [2]; [5]): 22.2 nM; IC50 (NCI-H929 cells [2]; Homo sapiens, compound alone): 243 nM |

The next lines start with results.

| IC50 (MV-4-11 cells) | IC50 (NCI-H929 cells [3]) | IC50 (U937 cells) | IC50 (MOLM-13 cells [4]) | IC50 (AML-2 cells) | inhibition at 1 µM (GSPT1 protein) | Compound | further results |
| --- | --- | --- | --- | --- | --- | --- | --- |
| 1 to 10 nM | 1 to 10 nM | 10 to 100 nM | 10 to 100 nM | 10 to 100 nM | 50 to 80% | O=C1CCC(N2Cc3c(ccc(CNC(=O)c4cc5cc(Cl)ccc5o4)c3Cl)C2=O)C(=O)N1 (stereo not drawn) [FDAB-68] |  |
| 1 to 10 nM | 10 to 100 nM | 1 to 10 nM | 1 to 10 nM | 1 to 10 nM | > 80% | Cc1cc(C(=O)NCc2ccc3c(c2F)CN(C2CCC(=O)NC2=O)C3=O)cc(C)c1C (stereo not drawn) [FDAB-92] |  |
| 10 to 100 nM | 100 to 1000 nM | 10 to 100 nM | 10 to 100 nM | 10 to 100 nM | > 80% | O=C1CCC(N2Cc3c(ccc(CNC(=O)C(F)(F)c4ccc(Cl)cc4)c3F)C2=O)C(=O)N1 (stereo not drawn) [FDAB-124] |  |
| 1 to 10 nM | 1 to 10 nM | 1 to 10 nM | 1 to 10 nM | 1 to 10 nM | > 80% | O=C(CCc1cccc(F)c1)NCc1ccc2c(c1F)CN(C1CCC(=O)NC1=O)C2=O (stereo not drawn) [FDAB-137] |  |
| < 1 nM | < 1 nM | 1 to 10 nM | < 1 nM | 1 to 10 nM | > 80% | O=C(/C=C/c1ccc(Cl)cc1)NCc1ccc2c(c1F)CN(C1CCC(=O)NC1=O)C2=O (stereo not drawn) [FDAB-142] |  |
| < 1 nM | < 1 nM | < 1 nM | < 1 nM | < 1 nM | > 80% | O=C(C#Cc1ccc(-c2ccccc2)cc1)NCc1ccc2c(c1F)CN(C1CCC(=O)NC1=O)C2=O (stereo not drawn) [FDAB-147] |  |
| 1 to 10 nM | 1 to 10 nM | 1 to 10 nM | 10 to 100 nM | 10 to 100 nM | > 80% | O=C1CCC(N2Cc3c(ccc(CNC(=O)C4CC5(CCC5)C4)c3F)C2=O)C(=O)N1 (stereo not drawn) [FDAB-156] |  |

Source: patent publication US20250282746A1, “HALOGEN-SUBSTITUTED ISOINDOLINE COMPOUND AND USE THEREOF” (CHENGDU FENDI PHARMACEUTICAL CO., LTD., priority 2022, published 2025)
